Source: ChEMBL document CHEMBL4819029, “Biflavanones, Chalconoids, and Flavonoid Analogues from the Stem Bark of Ochna holstii” (J Nat Prod, 2021)
Converted amounts (≈) assume the structure as drawn. The source made the active and inactive calls. No cut-off for these calls is given here.

Assays:
Bacillus subtilis = assay: Antibacterial activity against Bacillus subtilis incubated for 24 hrs by resazurin based assay; assay type: functional
Escherichia coli = assay: Antibacterial activity against Escherichia coli incubated for 24 hrs by resazurin based assay; assay type: functional, organism-based
MCF7 = assay: Cytotoxicity against human MCF7 cells assessed as reduction in cell viability after 24 hrs by PrestoBlue dye based fluorescence assay; assay type: functional; conditions: MCF7, 24 h

| Structure (SMILES) | MIC (Bacillus subtilis) [µM] | Activity (Escherichia coli) | EC50 (MCF7) [µM] |
| --- | --- | --- | --- |
| O=C(/C=C/c1ccc(O)c(Oc2ccc(CCC(=O)c3ccc(O)cc3O)cc2)c1)c1ccc(O)cc1O | > 250 |  |  |
| COc1ccc([C@H]2Oc3cc(OC)cc(O)c3C(=O)[C@@H]2[C@H]2C(=O)c3c(O)cc(OC)cc3O[C@@H]2c2ccc(O)cc2)cc1 | > 250 |  |  |
| COc1cc(O)c2c(c1)OC(c1ccc(O)cc1)C(C1C(=O)c3c(O)cc(OC)cc3OC1c1ccc(O)cc1)C2=O (stereo not drawn) | > 250 |  |  |
| COc1cc(O)c2c(c1)O[C@@H](c1ccc(O)cc1)[C@H]([C@@H]1C(=O)c3ccc(O)cc3O[C@H]1c1ccc(O)cc1)C2=O | 14 (≈ 7.57 µg/mL) |  |  |
| O=C1c2ccc(O)cc2O[C@@H](c2ccc(O)cc2)[C@@H]1[C@@H]1C(=O)c2ccc(O)cc2O[C@H]1c1ccc(O)cc1 | > 250 |  |  |
| O=C(c1ccc(O)cc1O)[C@H]1[C@H](C(=O)c2ccc(O)cc2O)[C@H](c2ccc(O)cc2)O[C@@H]1c1ccc(O)cc1 | > 250 | inactive | 24 |
